The values below come from US20240115654A1, “INTRAVENOUS ADMINISTRATION OF ENGINEERED ANTIMICROBIAL AMPHIPHILIC PEPTIDES” (priority 2021, published 2024).

Values after ≈ are worked out from the molar mass of the structure shown. Like-named read-outs stand apart in the source and are kept apart here. Peptide text beside a SMILES is read from it.

Type in all cases: cell-based
Assay [1] deals with Pseudomonas aeruginosa ATCC BAA-2109 (MDR). Conditions: Pseudomonas aeruginosa ATCC BAA-2109 (MDR). Here is the method:
(§1) Each peptide was formulated in PBS buffer prior to testing. Peptides of SEQ ID NO:5 and SEQ ID NO:8 were brought up in 100% DMSO with 0.002% polysorbate-80 at 1.28 mg/mL (40× the highest final test concentration of 32 mcg/mL). Final test concentration of DMSO was 2.5% in the assay at the first dilution for those two compounds.
(§2) Mueller Hinton II broth (MHB II; BD; Lot Nos. 6258541 and 7143896) was used for MIC testing of aerobic organisms. 0.002% polysorbate 80 (P80) was added to the test medium.
(§3) MIC values were determined using a broth microdilution procedure described by CLSI (1, 3). Automated liquid handlers (Multidrop 384, Labsystems, Helsinki, Finland; Biomek 2000 and Biomek FX, Beckman Coulter, Fullerton CA) were used to conduct serial dilutions and liquid transfers.
(§4) To prepare the drug mother plates, which would provide the serial peptide dilutions for the replicate daughter plates, the wells of columns 2-12 of standard 96-well microdilution plates (Costar 3795) were filled with 150 μl of the designated diluent for each row of peptide. The test articles and comparator compounds (300 μl at 40× the highest concentration to be tested) were dispensed into the appropriate wells in column 1. The Biomek 2000 was then used to make 2-fold serial dilutions in the mother plates from column 1 through column 11. The wells of Column 12 contained no drug and served as the organism growth control wells for the assay.
(§5) The daughter plates were loaded with 185 μL per well of MHB II using the Multidrop 384. The daughter plates were completed on the Biomek FX instrument which transferred 5 uL of peptide solution from each well of a mother plate to the corresponding well of each daughter plate in a single step. A standardized inoculum of each test organism was prepared per CLSI methods. The inoculum for each organism was dispensed into sterile reservoirs divided by length (Beckman Coulter), and the Biomek 2000 was used to inoculate the plates. Daughter plates were placed on the Biomek 2000 work surface in reverse orientation so that inoculation took place from low to high drug concentration. The plates were then inoculated with 10 μL of the inoculum resulting in a final cell density of approximately 5×10^5 CFU/mL, per well.
(§6) Plates were stacked 3-4 high, covered with a lid on the top plate, placed in plastic bags, and incubated at 35° C. for 16 to 20 hrs. Following incubation, the microplates were removed from the incubator and viewed from the bottom using a plate viewer. […] The MIC was read and recorded as the lowest concentration of peptide that inhibited visible growth of the organism.

The test system of assay [2] is Streptococcus pyogenes ATCC 49399. Conditions: Streptococcus pyogenes ATCC 49399. Here is the method: as §1, §2, §3, §4, §5, §6
The test system of assay [3] is Enterococcus faecalis ATCC 700802 (V583 VRE). The method, then: as §1, §2, §3, §4, §5, §6
In assay [4] the test system is Streptococcus agalactiae ATCC 13813. Here is the method: as §1, §2, §3, §4, §5, §6
Assay [5] relates to Klebsiella pneumoniae ATCC BAA-1705 (KPC). Here is the method:
as §1, §2, §3, §4, §5, §6

Assay [6] has as its system Pseudomonas aeruginosa ATCC 27853 (non-MDR; QC). Here is the method:
as §1, §2, §3, §4, §5, §6

Assay [7] concerns Staphylococcus aureus ATCC 43300 (MRSA). Here is the method:
as §1, §2, §3, §4, §5, §6

Assay [8] relates to Enterococcus faecium ATCC 51559 (VRE). Particulars: Enterococcus faecium ATCC 51559 (VRE). Here is the method:
as §1, §2, §3, §4, §5, §6

Assay [9] has as its system Staphylococcus aureus NRS382 (USA100; HA-MRSA). The method, then: as §1, §2, §3, §4, §5, §6
The subject of assay [10] is Enterococcus faecalis ATCC 29212 (VSE; QC). Conditions: Enterococcus faecalis ATCC 29212 (VSE; QC). The method, then:
as §1, §2, §3, §4, §5, §6

The test system of assay [11] is Escherichia coli ATCC 25922 (QC). The method, then:
as §1, §2, §3, §4, §5, §6

In assay [12] the test system is Acinetobacter baumannii ATCC 19606 (non-MDR). Conditions: Acinetobacter baumannii ATCC 19606 (non-MDR). The method, then: as §1, §2, §3, §4, §5, §6
Assay [13] relates to Streptococcus pneumoniae ATCC 49619 (QC). Particulars: Streptococcus pneumoniae ATCC 49619 (QC). The method, then: as §1, §2, §3, §4, §5, §6
Assay [14] relates to Staphylococcus aureus ATCC 29213 (MSSA; QC). Particulars: Staphylococcus aureus ATCC 29213 (MSSA; QC). Here is the method:
as §1, §2, §3, §4, §5, §6

Assay [15] deals with Escherichia coli ATCC BAA-2471 (NDM-1). Conditions: Escherichia coli ATCC BAA-2471 (NDM-1). The method, then:
as §1, §2, §3, §4, §5, §6

The subject of assay [16] is Escherichia coli ATCC 35218 (ESBL). Conditions: Escherichia coli ATCC 35218 (ESBL). The method, then:
as §1, §2, §3, §4, §5, §6

Turning to `CC(C)[C@H](NC(=O)[C@H](Cc1c[nH]c2ccccc12)NC(=O)[C@H](CCCNC(=N)N)NC(=O)[C@H](CCCNC(=N)N)NC(=O)[C@@H](NC(=O)[C@@H](NC(=O)[C@H](CCCNC(=N)N)NC(=O)[C@@H](NC(=O)[C@@H](NC(=O)[C@H](CCCNC(=N)N)NC(=O)[C@H](CCCNC(=N)N)NC(=O)[C@H](Cc1c[nH]c2ccccc12)NC(=O)[C@@H](NC(=O)[C@H](CCCNC(=N)N)NC(=O)[C@H](CCCNC(=N)N)NC(=O)[C@@H](NC(=O)[C@H](CCCNC(=N)N)NC(=O)[C@H](CCCNC(=N)N)NC(=O)[C@@H](NC(=O)[C@H](Cc1c[nH]c2ccccc12)NC(=O)[C@H](CCCNC(=N)N)NC(=O)[C@@H](N)CCCNC(=N)N)C(C)C)C(C)C)C(C)C)C(C)C)C(C)C)C(C)C)C(C)C)C(=O)N[C@@H](CCCNC(=N)N)C(=O)N[C@@H](CCCNC(=N)N)C(N)=O` [SEQ ID NO: 1] (H-RRWVRRVRRVWRRVVRVVRRWVRR-NH2), the minimum inhibitory concentration (MIC) – broadly, the smallest concentration in the dilution series that meets the test's criterion for growth inhibition – was determined as 4 µg/mL (≈ 1.18 µM) in assay [1]; 8 µg/mL (≈ 2.35 µM) in assay [2]; 4 µg/mL (≈ 1.18 µM) in assay [3] (ATCC 700802); 8 µg/mL (≈ 2.35 µM) in assay [4]; 8 µg/mL (≈ 2.35 µM) in assay [5] (ATCC BAA-1705); 8 µg/mL (≈ 2.35 µM) in assay [6] (ATCC 27853). Further, the minimal inhibitory concentration (MIC) in assay [7] (ATCC 43300) turned out to be 4 µg/mL (≈ 1.18 µM); in assay [8], 2 µg/mL (≈ 0.588 µM); in assay [9] (USA100), 4 µg/mL (≈ 1.18 µM); in assay [10] it was 8 µg/mL (≈ 2.35 µM); in assay [11] (ATCC 25922), 4 µg/mL (≈ 1.18 µM); in [12], 2 µg/mL (≈ 0.588 µM). For the same compound, the minimal inhibitory concentration (MIC) was determined as 16 µg/mL (≈ 4.71 µM) in assay [13], 8 µg/mL (≈ 2.35 µM) in assay [14], 2 µg/mL (≈ 0.588 µM) in assay [15] and 8 µg/mL (≈ 2.35 µM) in [16].
Turning to Colistin [reference compound], the MIC is 0.12 µg/mL in assay [1]; >32 µg/mL in [2]; >32 µg/mL in assay [3] (Enterococcus faecalis ATCC 700802 (V583 VRE)); >32 µg/mL in assay [4]; 0.12 µg/mL in assay [5] (Klebsiella pneumoniae ATCC BAA-1705 (KPC)); 0.25 µg/mL in assay [6] (Pseudomonas aeruginosa ATCC 27853 (non-MDR; QC)). Further, the MIC in assay [7] (Staphylococcus aureus ATCC 43300 (MRSA)) was >32 µg/mL; in assay [8], >32 µg/mL; in assay [9] (Staphylococcus aureus NRS382 (USA100; HA-MRSA)), >32 µg/mL; in assay [10] it was >32 µg/mL; in [11] (Escherichia coli ATCC 25922 (QC)), 0.12 µg/mL; in assay [12] it was 0.25 µg/mL. In addition, the minimum inhibitory concentration (MIC) in assay [13] is >32 µg/mL; in assay [14], >32 µg/mL; in [15] it was 0.06 µg/mL; in [16], 0.12 µg/mL.
